Measured values published in US20070232492A1, “Herbicidal Composition” (Ishihara Sangyo Kaisha, LTD., priority 2004, published 2007).
Read-outs that look alike come from different tables or passages of the source.

How the values were obtained:
[1] = tested on: barnyardgrass (Echinochloa oryzicola vasing); assay: Growth inhibition of barnyardgrass in paddy soil pots, application under submerged condition, visual rating (observed value) and Colby expected value; format: in vivo; settings: for inhibition at 225 g/ha: read-out: Growth inhibition rate (%) Observed, 2.25 g/a
Excerpt: (§1) When the herbicidal activity in a case where two active ingredients are combined, is larger than the simple sum of the respective herbicidal activities of the two active ingredients (the expected activity), it is called a synergistic effect. The activity expected by the combination of two active ingredients can be calculated as follows (Colby S. R., “Weed”, vol. 15, p. 20-22, 1967). E=p+q−(p×q÷100) where p: growth inhibition rate when treated with x (g/a) of herbicide X,
(§2) q: growth inhibition rate when treated with y (g/a) of herbicide Y,
(§3) E: growth inhibition rate expected when treated with x (g/a) of herbicide X and y (g/a) of herbicide Y.
(§4) Namely, when the actual growth inhibition rate (observed value) is larger than the growth inhibition rate by the above calculation (expected value), the activity by the combination can be regarded as showing a synergistic effect.
Paddy field soil was put into a 1/10,000 are pot, and seeds of barnyardgrass (Echinochloa oryzicola vasing) were sown and left to stand under an irrigated condition with a water depth of 3.5 cm. When barnyardgrass reached 2.0 to 2.5 leaf stage, wettable powders of compound A2 and compound (B1.1) were, respectively, diluted with water and applied under submerged condition so that the active ingredients became the prescribed amounts, respectively. The state of growth was visually observed 21 days after application, and the growth inhibition rate (%) evaluated in accordance with the following evaluation standard (observed value) and the growth inhibition rate (%) calculated by the above-mentioned Colby method (expected value) are shown in Table 1.
(§5) Growth inhibition rate (%)=0% (equivalent to the non-treated area) to 100% (complete kill)
(§6) Paddy field soil was put into a 1/10,000 are pot, and seeds of barnyardgrass (Echinochloa oryzicola vasing) were sown and left to stand under an irrigated condition with a water depth of 3.5 cm. When barnyardgrass reached 2.0 to 2.5 leaf stage, wettable powders of compound A2 and compound (B2.1) were, respectively, diluted with water and applied under submerged condition so that the active ingredients became the prescribed amounts, respectively. The state of growth was visually observed 21 days after application, and evaluation and calculation were carried out in the same manner as in the above Test Example 1.
as §6, with “leaf stage, a wettable powder” for “leaf stage, wettable powders”, “a wettable powder of compound” for “stage, wettable powders of compound”, “A2 and an emulsifiable concentrate of compound (B3.1)” for “A2 and compound (B2.1)”, “of compound (B3.1) were, respectively,” for “and compound (B2.1) were, respectively,”
as §6, with “(B4.1)” for “(B2.1)”
Paddy field soil was put into a 1/10,000 are pot, and seeds of barnyardgrass (Echinochloa oryzicola vasing) were sown and left to stand under an irrigated condition with a water depth of 3.5 cm. […]

[2] = tested on: Japanese bulrush (Scirpus juncoides); assay: Growth inhibition of Japanese bulrush in paddy soil pots, application under submerged condition, visual rating and Colby expected value; format: in vivo
Excerpt: as §1, §2, §3, §4, §5
(§7) Paddy field soil was put into a 1/10,000 are pot, and seeds of Japanese bulrush (Scirpus juncoides) were sown and left to stand under an irrigated condition with a water depth of 3.5 cm. When Japanese bulrush reached 2.3 to 2.6 leaf stage, a wettable powder of compound A2 and granules of compound (B7.1) were, respectively, diluted with water and applied under submerged condition so that the active ingredients became the prescribed amounts, respectively. The state of growth was visually observed 10 days after application, and evaluation and calculation were carried out in the same manner as in the above Test Example 1.
as §7, with “an emulsifiable concentrate” for “granules”, “(B3.1)” for “(B7.1)”
(§8) Paddy field soil was put into a 1/10,000 are pot, and seeds of Japanese bulrush (Scirpus juncoides) were sown and left to stand under an irrigated condition with a water depth of 3.5 cm. When Japanese bulrush reached 2 leaf stage, wettable powders of compound A2, C2 and C4 and granules of compound C6 were, respectively, diluted with water and applied under submerged condition so that the active ingredients became the prescribed amounts, respectively.
Paddy field soil was put into a 1/10,000 are pot, and seeds of Japanese bulrush (Scirpus juncoides) were sown and left to stand under an irrigated condition with a water depth of 3.5 cm. When Japanese bulrush reached 2 leaf stage, wettable powders of compound A2, C2 and C4 and granules of compound C6 were, respectively, diluted with water and applied under submerged condition so that the active ingredients became the prescribed amounts, respectively. The state of growth was visually observed 19 days after application, and the growth inhibition rate (%) evaluated in the same manner as in the above Test Example 1 (observed value) and the growth inhibition rate (%) calculated by the above-mentioned Colby method (expected value) are shown in Tables 36, 37 and 38.
as §8, with “3” for “2”, “A2” for “A2, C2”, “and” for “and C4 and granules of”, “(D2.2)” for “C6”, “respectively. […]” for “respectively.”

[3] = 0.5 g/a, 2 leaf stage, 19 days after application, Test Example 33
[4] = 1.0 g/a, 2 leaf stage, 19 days after application, Test Example 33
[5] = 1.5 g/a, 2 leaf stage, 19 days after application, Test Example 34
[6] = 2.0 g/a, 2 leaf stage, 19 days after application, Test Example 33
[7] = 3.75 g/a, 2 leaf stage, 19 days after application, Test Example 34
[8] = 10 g/a, 2 leaf stage, 19 days after application, Test Example 34

CCNc1nc(NCC)nc(SC)n1 [Compound (B5.1), simetryn]
inhibition at 169 g/ha ([1]; Echinochloa oryzicola, soil, 504 h, read-out: Growth inhibition rate (%) Observed, 1.69 g/a, 1.0 to 3.0 leaf stage, 21 days after application): 3% | inhibition at 225 g/ha ([1]; Echinochloa oryzicola, soil, 504 h, 2.0 to 2.5 leaf stage, 21 days after application): 2% | inhibition at 338 g/ha ([1]; Echinochloa oryzicola, soil, 504 h, read-out: Growth inhibition rate (%) Observed, 3.38 g/a, 1.0 to 3.0 leaf stage, 21 days after application): 10% | inhibition at 450 g/ha ([1]; Echinochloa oryzicola, soil, 504 h, read-out: Growth inhibition rate (%) Observed, 4.5 g/a, 2.0 to 2.5 leaf stage, 21 days after application): 5% | inhibition at 225 g/ha ([1]; Echinochloa oryzicola, soil, 696 h, 2.4 to 3.2 leaf stage, 29 days after application, Test Example 45): 5% | inhibition at 450 g/ha ([2]; Schoenoplectiella juncoides, soil, 696 h, read-out: Growth inhibition rate (%) Observed): 25%

CC(C)N1C(=O)c2ccccc2NS1(=O)=O [Compound (B7.1), bentazone]
inhibition at 3300 g/ha ([1]; Echinochloa oryzicola, soil, 504 h, 33 g/a, 3.0 to 3.3 leaf stage, 21 days after application, read-out: Growth inhibition rate (%) Observed): 0% | inhibition at 4400 g/ha ([1]; Echinochloa oryzicola, soil, 504 h, 44 g/a, 3.0 to 3.3 leaf stage, 21 days after application, read-out: Growth inhibition rate (%) Observed): 0% | inhibition at 413 g/ha ([2]; Schoenoplectiella juncoides, soil, 240 h, 4.13 g/a, 2.3 to 2.6 leaf stage, 10 days after application, read-out: Growth inhibition rate (%) Observed): 10% | inhibition at 825 g/ha ([2]; Schoenoplectiella juncoides, soil, 240 h, 8.25 g/a, 2.3 to 2.6 leaf stage, 10 days after application, read-out: Growth inhibition rate (%) Observed): 10% | inhibition at 1650 g/ha ([2]; Schoenoplectiella juncoides, soil, 240 h, 16.5 g/a, 2.3 to 2.6 leaf stage, 10 days after application, read-out: Growth inhibition rate (%) Observed): 13% | inhibition at 750 g/ha ([2]; Schoenoplectiella juncoides, soil, 504 h, 7.5 g/a, 3.8 to 4.2 leaf stage, 21 days after application, Test Example 61, read-out: Growth inhibition rate (%) Observed): 98%

COc1cc(OC)nc(NC(=O)NS(=O)(=O)c2cccnc2C(O)C(C)F)n1 (stereo not shown) [Compound A1]
Growth inhibition rate (%) Observed ([1]; 0.083 g/a, 1.0 to 3.0 leaf stage, 21 days after application): 83% | Growth inhibition rate (%) Observed ([1]; 0.083 g/a, 2.8 to 3.2 leaf stage, 19 days after application, Test Examples 62-65): 55% | Growth inhibition rate (%) Observed ([1]; 0.083 g/a, 2.8 to 3.2 leaf stage, 21 days after application, Test Examples 39-43): 57% | Growth inhibition rate (%) Observed ([1]; 0.083 g/a, 2.8 to 3.4 leaf stage, 14 days after application, Test Examples 66-72): 40% | Growth inhibition rate (%) Observed ([1]; 0.083 g/a, 3.0 to 3.3 leaf stage, 21 days after application): 43% | Growth inhibition rate (%) Observed ([1]; 0.11 g/a, 1.0 to 3.0 leaf stage, 21 days after application): 97% | Growth inhibition rate (%) Observed ([1]; 0.11 g/a, 2.8 to 3.2 leaf stage, 19 days after application, Test Examples 62-65): 93% | Growth inhibition rate (%) Observed ([1]; 0.11 g/a, 2.8 to 3.2 leaf stage, 21 days after application, Test Examples 39-43): 67% | Growth inhibition rate (%) Observed ([1]; 0.11 g/a, 2.8 to 3.4 leaf stage, 14 days after application, Test Examples 66-72): 53% | Growth inhibition rate (%) Observed ([1]; 0.11 g/a, 3.0 to 3.3 leaf stage, 21 days after application): 60% | Growth inhibition rate (%) Observed ([1]; 0.165 g/a, 1.0 to 3.0 leaf stage, 21 days after application): 98% | Growth inhibition rate (%) Observed ([1]; 0.165 g/a, 2.8 to 3.2 leaf stage, 19 days after application, Test Examples 62-65): 94% | Growth inhibition rate (%) Observed ([1]; 0.165 g/a, 2.8 to 3.2 leaf stage, 21 days after application, Test Examples 39-43): 78% | Growth inhibition rate (%) Observed ([1]; 0.165 g/a, 2.8 to 3.4 leaf stage, 14 days after application, Test Examples 66-72): 70% | Growth inhibition rate (%) Observed ([1]; 0.165 g/a, 3.0 to 3.3 leaf stage, 21 days after application): 75% | Growth inhibition rate (%) Observed ([2]; 0.11 g/a, 3.8 to 4.2 leaf stage, 21 days after application, Test Example 61): 65%

CCOC(=O)COc1ccc(Cl)cc1C [Compound C2, MCP ethyl]
Growth inhibition rate (%) Observed [2, 3]: 13% | Growth inhibition rate (%) Observed [2, 4]: 23% | Growth inhibition rate (%) Observed [2, 5]: 20% | Growth inhibition rate (%) Observed [2, 6]: 35% | Growth inhibition rate (%) Observed [2, 7]: 45% | Growth inhibition rate (%) Observed [2, 8]: 68%

CCOC(=O)COc1ccc(Cl)cc1Cl [Compound C6, 2,4-D ethyl]
Growth inhibition rate (%) Observed [2, 3]: 23% | Growth inhibition rate (%) Observed [2, 4]: 33% | Growth inhibition rate (%) Observed [2, 5]: 20% | Growth inhibition rate (%) Observed [2, 6]: 53% | Growth inhibition rate (%) Observed [2, 7]: 45% | Growth inhibition rate (%) Observed [2, 8]: 68%
